Like-named read-outs stand apart in the source and are kept apart here.
Columns and labels:
P. tricornutum = test system: P. tricornutum
Protocol: (§1) A. Re-supply Experiment: For both colimitation experiments (T. pseudonana and P. tricornutum), each remaining culture was split in four just after the protein harvest time point. For the T. pseudonana study, the cultures were re-supplied with either 1) nothing, 2) 100 pM B12, 3) 400 nM Fetotal, or 4) both 100 pM B12 and 400 nM Fe. For the P. tricornutum study, the cultures were re-supplied with either 1) nothing, 2) 100 pM B12, 3) 100 nM Fetotal, or 4) both 100 pM B12 and 100 nM Fe.
(§2) For both studies, each culture was monitored for growth via in vivo fluorescence.

T. pseudonana = assay: Re-supply experiment, growth via in vivo fluorescence; format: cell-based, Thalassiosira pseudonana
Protocol: as §1, §2

P. tricornutum cells = assay: Cobalamin (57Co-B12) uptake rate in P. tricornutum cell lines overexpressing CBA1; format: cell-based, Phaeodactylum tricornutum; settings: CBA1 overexpression vs wild type and Urease-OE1; exponentially growing cells, B12-replete (100 pM B12), 24 hours
Protocol: B12 Uptake Rate Assessments: Inorganic ^57Co was removed from a carrier-free ^57Co-B12 stock solution (MP Biomedicals) via Chelex-100 (Price et al. (1988/1989) “Preparation and Chemistry of the Artificial Algal Culture Medium Aquil,” Biol Oceanogr 6: 443-461) and the remaining solution was used as a radiotracer in cultures of P. tricornutum. Strains (wild type, two cell lines overexpressing CBA1_48322 and one line overexpressing urease) were grown through three successive transfers into media as described above, with 100 pM B12 and 80 μg/mL zeocin added (zeocin not added to wild type). When the cells were in mid-exponential growth in the third transfer, each strain was used to inoculate (3%) three 28 mL polycarbonate tubes containing 20 mL of growth media with 100 pM B12 and 80 μg/mL zeocin and allowed to acclimate for 3 hours. […] B12 uptake was measured by assessing the percentage of added tracer that was taken up into the particulate fraction via gamma counting as previously described (Bertrand et al. (2007) supra) and assuming that total B12 concentrations were 100 pM for the period of uptake. Cell growth was monitored by fluorescence and then translated to cell number via calibration curves created during growth of the 3rd transfer. […]

Molecule: iron
- growth after re-supply (P. tricornutum; low cobalamin/low Fe culture, iron addition alone (100 nM Fe total)): rescued
- growth after re-supply (P. tricornutum; low iron culture re-supplied with 100 nM Fe total): rescued the growth
- growth after re-supply (T. pseudonana; low iron culture re-supplied with 400 nM Fe total): rescued the growth

Molecule: C/C1=C2/[N-][C@H]([C@H](CC(N)=O)[C@@]2(C)CCC(=O)NC[C@H](C)OP(=O)([O-])O[C@H]2[C@@H](O)[C@@H](n3cnc4cc(C)c(C)cc43)O[C@@H]2CO)[C@]2(C)N=C(/C(C)=C3N=C(/C=C4N=C1[C@@H](CCC(N)=O)C\4(C)C)[C@@H](CCC(N)=O)[C@]\3(C)CC(N)=O)[C@@H](CCC(N)=O)[C@]2(C)CC(N)=O.[Co+2] (stereo in doubt) [cobalamin]
- growth after re-supply (T. pseudonana; low cobalamin culture re-supplied with 100 pM B12): rescued the growth

B1: CBA1: cobalamin acquisition protein of P. tricornutum (isoform Pt48322), overexpressed as a YFP fusion in the native host (protein, listed as Phaeodactylum tricornutum)
chain: DEPPACLTSTADLSVDIFTDKVEPLFSQGWNVTYHNTYKIANNLFDNTTYLLYQCGSTPPADVVDNGNFNAVLEIPLSNVGLSQTPHIGFMEQLELVDEIAAFLTDTDFISSPCFLDEIAAGNVLTLVEPSEGVDAPATGNTALSAGTVAFVASFTQVPFDNTVNIQEYSELTNVAVFEWVKFFSVFFNKEHTANQVVEAAESRFDCVAQNAGAVQADNMPVKPVVLWAYYSDFCGGWDVAECPNYYCEFANACGAEIISSTEGNTTVCGAPYMTTEELVELGKDADHWIYPSSNWDTASETFGEQLQNMKAVQDQQVFDYQASGENAWFEQRYAEYYNVLADFCAVVGTTQPLTGRSWFRNVFTEPVGSLPDCSPTQSANILDDVHICFLPTTGGAAAGGGSGSGGSSAKAIAVGTAALAAGLLSLIHVLLF
modifications: YFP fusion
notes: cobalamin acquisition protein of P. tricornutum (isoform Pt48322), overexpressed as a YFP fusion in the native host
- enhancement of cell specific radiolabeled cobalamin uptake rates (P. tricornutum cells): 2 to 3 fold
